Data: patent US12630563B2, “Macrocyclic RIP2-kinase inhibitors” (Oncodesign S.A., priority 2020, dated 2026)

What follows are compounds tested against T1, recombinant hRIPK2 protein (kinase domain aa 1-299-His-tagged) (Homo sapiens, UniProt O43353) (assay: RIPK2 AlphaLISA assay (displacement of bead-bound CZC-8004 from hRIPK2)). Conditions: recombinant hRIPK2 kinase domain 10 nM, 2 h at 23° C.
T1 construct: kinase domain aa 1-299-His-tagged; purchased Life Technologies PR7829A
T1 sequence (O43353 1-299): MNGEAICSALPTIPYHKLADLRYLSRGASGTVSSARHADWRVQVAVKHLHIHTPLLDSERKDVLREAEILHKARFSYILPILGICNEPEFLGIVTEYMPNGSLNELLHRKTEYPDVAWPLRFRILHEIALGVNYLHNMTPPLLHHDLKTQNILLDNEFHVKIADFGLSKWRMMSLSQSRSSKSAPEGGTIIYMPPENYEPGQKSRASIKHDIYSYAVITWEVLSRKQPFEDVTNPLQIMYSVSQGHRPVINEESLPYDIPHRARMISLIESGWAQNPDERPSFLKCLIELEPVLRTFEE
Format: binding
Procedure, shortened: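 His-tagged kinase domain (10 nM, as diluted) was mixed with compound (0.8% DMSO), acceptor beads bearing the probe CZC-8004 and Ni2+ donor beads. After 2 h at 23 °C, AlphaLISA signal was read. Loss of signal reflects displacement of the probe from RIPK2.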
Compound `CO[C@@H]1C[C@H]2COc3nc4c(cnn4cc3C)-c3cc(cc(OCc4cnn(C)c4)c3)NCCN2C1=O` [Example 51, (12R,14S)-12-methoxy-18-methyl-4-[(1-methyl-1H-pyrazol-4-yl)methoxy]-16-oxa-7,10,20,21,24-pentaazapentacyclo[15.5.2.1^2,6.0^10,^14.0^20,^23]pentacosa-1(23),2,4,6(25),17(24),18,21-heptaen-11-one] has an IC50 of 100 to 11000 nM.
For `CCc1cc2cc(c1)-c1cnn3ccc(nc13)OC[C@@H]1C[C@@H](OC)C(=O)N1CCN2` [Example 21, (12R,14S)-4-ethyl-12-methoxy-16-oxa-7,10,20,21,24-pentaazapentacyclo[15.5.2.1^2,6.0^10,^14.0^20,^23]pentacosa-1(23),2,4,6(25),17(24),18,21-heptaen-11-one], the IC50 was 10 to 100 nM.
`CO[C@@H]1C[C@H]2COc3ccn4ncc(c4n3)-c3cc(cc(OCc4cnn(C)c4)c3)NCCN2C1=O` [Example 46, (12R,14S)-12-methoxy-4-[(1-methyl-1H-pyrazol-4-yl)methoxy]-16-oxa-7,10,20,21,24-pentaazapentacyclo[15.5.2.1^2,6.0^10,^14.0^20,^23]pentacosa-1(23),2,4,6(25),17(24),18,21-heptaen-11-one] showed an IC50 of 10 to 100 nM.
Work on `C#Cc1cc2cc(c1)-c1cnn3ccc(nc13)OC[C@@H]1C[C@@H](OCC)C(=O)N1CCN2` [Example 72, (12R,14S)-12-ethoxy-4-ethynyl-16-oxa-7,10,20,21,24-pentaazapentacyclo[15.5. 2.1^2,6.0^10,^14.0^20,^23]pentacosa-21-heptaen-11-one] yielded an IC50 of under 10 nM.
In the case of `[2H]C([2H])([2H])Oc1cc2cc(c1)-c1cnn3ccc(nc13)OC[C@@H]1C[C@@H](OCCOC)C(=O)N1CCN2` (racemic) [Example 95, (12R,14S)-4-(^2H3)methoxy-12-(2-methoxyethoxy)-16-oxa-7,10,20,21,24-pentaazapentacyclo[15.5.2.1^2,6.0^10,^14.0^20,^23]pentacosa-1(23),2(25),3,5,17(24),18,21-heptaen-11-one], the IC50 is reported as under 10 nM.
For `CO[C@@H]1C[C@H]2COc3nc4c(cnn4cc3C)-c3cc(CO)cc(c3)NCCN2C1=O` [Example 64, (12R,14S)-4-(hydroxymethyl)-12-methoxy-18-methyl-16-oxa-7,10,20,21,24-pentaazapentacyclo[15.5.2.1^2,6.0^1°,^14.0^2°,^23]pentacosa-1(23),2,4,6(25),17(24),18,21-heptaen-11-one], the IC50 was 10 to 100 nM.
`CC(C)O[C@@H]1C[C@H]2COc3ccn4ncc(c4n3)-c3cc(Cl)cc(c3)NCCN2C1=O` [Example 38, (12R,14S)-4-chloro-12-(propan-2-yloxy)-16-oxa-7,10,20,21,24-pentaazapentacyclo[15.5.2.1^2,6.0^10,^14.0^20,^23]pentacosa-1(23),2,4,6(25),17(24),18,21-heptaen-11-one] gave an IC50 of under 10 nM.
Compound `CC#Cc1cc2cc(c1)-c1cnn3ccc(nc13)OC[C@@H]1C[C@@H](OC)C(=O)N1CCN2` [Example 88, (12R,14S)-12-methoxy-4-(prop-1-yn-1-yl)-16-oxa-7,10,20,21,24-pentaazapentacyclo[15.5.2.1^2,6.0^1°,^14.0^2°,^23]pentacosa-1(23),2,4,6(25),17(24),18,21-heptaen-11-one] has an IC50 of under 10 nM.
In the case of `CO[C@@H]1C[C@H]2COc3ccn4ncc(c4n3)-c3cc(cc(C(=O)NOC(C)C)c3)NCCN2C1=O` [Example 107, (12R,14S)-12-methoxy-11-oxo-N-(propan-2-yloxy)-16-oxa-7,10,20,21,24-pentaazapentacyclo[15.5.2.1^2,6.0^10,^14.0^20,^23]pentacosa-1(23),2,4,6(25),17(24),18,21-heptaene-4-carboxamide], the IC50 is reported as 10 to 100 nM.
With `COc1cc2cc(c1)-c1cnn3ccc(nc13)OC[C@@H]1C[C@@H](OCC3CC3)C(=O)N1CCN2` [Example 22, (12R,14S)-12-(cyclopropylmethoxy)-4-methoxy-16-oxa-7,10,20,21,24-pentaazapentacyclo[15.5.2.1^2,6.0^10,^14.0^20,^23]pentacosa-1(23),2(25),3,5,17(24),18,21-heptaen-11-one] the IC50 was under 10 nM.
For `COc1cc2cc(c1)-c1cnn3ccc(nc13)OC[C@@H]1C[C@@H](OC)C(=O)N1CC(C)N2` (stereo partly drawn) [Example 89, (12R,14S)-4,12-dimethoxy-8-methyl-16-oxa-7,10,20,21,24-pentaazapentacyclo[15.5.2.1^2,6.0^1°,^14.0^2°,^23]pentacosa-1(23),2,4,6(25),17(24),18,21-heptaen-11-one], the IC50 was under 10 nM.
With `CCN(C)C(=O)c1cc2cc(c1)-c1cnn3ccc(nc13)OC[C@@H]1C[C@@H](OC)C(=O)N1CCN2` [Example 56, (12R,14S)-N-ethyl-12-methoxy-N-methyl-11-oxo-16-oxa-7,10,20,21,24-pentaazapentacyclo[15.5.2.1^2,6.0^10,^14.0^20,^23]pentacosa-1(23),2,4,6(25),17(24),18,21-heptaene-4-carboxamide] the IC50 was under 10 nM.
With `[2H]C([2H])([2H])Oc1cc2cc(c1)-c1cnn3ccc(nc13)OC[C@@H]1C[C@@H](OC)C(=O)N1CCN2` [Example 52, (12R,14S)-4-(^2H3)methoxy-12-methoxy-16-oxa-7,10,20,21,24-pentaazapentacyclo[15.5.2.1^2,6.0^10,^14.0^20,^23]pentacosa-1(23),2,4,6(25),17(24),18,21-heptaen-11-one] the IC50 was under 10 nM.
Work on `CO[C@@H]1C[C@H]2COc3ccn4ncc(c4n3)-c3cc(cc(OC(F)F)c3)NCCN2C1=O` [Example 13, (12R,14S)-4-(difluoromethoxy)-12-methoxy-16-oxa-7,10,20,21,24-pentaazapentacyclo[15.5.2.1^2,6.0^10,^14.0^20,^23]pentacosa-1(23),2,4,6(25),17(24),18,21-heptaen-11-one] yielded an IC50 of under 10 nM.
`CO[C@H]1C[C@H]2COc3ccn4ncc(c4n3)-c3cc(F)cc(c3)NCCN2C1=O` [Example 25, (12S,14S)-4-fluoro-12-methoxy-16-oxa-7,10,20,21,24-pentaazapentacyclo[15.5.2.1^2,6.0^10,^14.0^20,^23]pentacosa-1(23),2(25),3,5,17(24),18,21-heptaen-11-one] gave an IC50 of under 10 nM.
In the case of `COCCc1cn2ncc3c2nc1OC[C@@H]1C[C@@H](OC)C(=O)N1CCNc1cc-3cc(-n2cccn2)c1` [Example 78, (12R,14S)-12-methoxy-18-(2-methoxyethyl)-4-(1H-pyrazol-1-yl)-16-oxa-7,10,20,21,24-pentaazapentacyclo[15.5. 2.1^2,6.0^10,^14.0^20,^23]pentacosa-1(23),2(25),3,5,17(24),18, 21-heptaen-11-one], the IC50 is reported as under 10 nM.
Compound `CO[C@@H]1C[C@H]2COc3ccn4ncc(c4n3)-c3cc(cc(OC(C)C)c3)NCCN2C1=O` [Example 8, (12R,14S)-12-methoxy-4-(propan-2-yloxy)-16-oxa-7,10,20,21,24-pentaazapentacyclo[15.5.2.1^2,6.0^10,^14.0^20,^23]pentacosa-1(23),2,4,6(25),17(24),18,21-heptaen-11-one] has an IC50 of under 10 nM.
`COCCO[C@@H]1C[C@H]2COc3nc4c(cnn4cc3OCCCN(C)C)-c3cc(cc(OC)c3)NCCN2C1=O` [Example 127, (12R,14S)-18-[3-(dimethylamino)propoxy]-4-methoxy-12-(2-methoxyethoxy)-16-oxa-7,10,20,21,24-pentaazapentacyclo[15.5.2. 1^2,6.0^10,^14.0^20,^23]pentacosa-1(23),2,4,6(25),17(24),18,21-heptaen-11-one] gave an IC50 of under 10 nM.
In the case of `COc1cc2cc(c1)-c1cnn3cc(C)c(nc13)OC[C@@H]1C[C@@H](OC)C(=O)N1CCN2` [Example 19, (12R,14S)-4,12-dimethoxy-18-methyl-16-oxa-7,10,20,21,24-pentaazapentacyclo[15.5.2.1^2,6.0^10,^14.0^20,^23]pentacosa-1(23),2(25),3,5,17(24),18,21-heptaen-11-one], the IC50 is reported as under 10 nM.
`CO[C@@H]1C[C@H]2COc3ccn4ncc(c4n3)-c3cc(cc(-n4nccc4C)c3)NCCN2C1=O` [Example 43, (12R,14S)-12-methoxy-4-(5-methyl-1H-pyrazol-1-yl)-16-oxa-7,10,20,21,24-pentaazapentacyclo[15.5.2.1^2,6.0^10,^14.0^20,^23]pentacosa-1(23),2(25),3,5,17(24),18,21-heptaen-11-one] gave an IC50 of under 10 nM.
`CCO[C@@H]1C[C@H]2COc3ccn4ncc(c4n3)-c3cc(cc(C(=O)N(C)OC)c3)NCCN2C1=O` [Example 57, (12R,14S)-12-ethoxy-N-methoxy-N-methyl-11-oxo-16-oxa-7,10,20,21,24-pentaazapentacyclo[15.5.2.1^2,6.0^10,^14.0^20,^23]pentacosa-1(23),2(25),3,5,17(24),18,21-heptaene-4-carboxamide] was tested, and the IC50 was under 10 nM.
`COc1cc2cc(c1)-c1cnn3ccc(nc13)OC[C@@H]1C[C@@H](OC)C(=O)N1CC(C)N2` (single isomer, unassigned) [Example 105, (8R*,12R,14S)-4,12-dimethoxy-8-methyl-16-oxa-7,10,20,21,24-pentaazapentacyclo[15.5.2.1^2,6.0^1°,^14.0^2°,^23]pentacosa-1(23),2,4,6(25),17(24),18,21-heptaen-11-one] gave an IC50 of under 10 nM.
Compound `CCO[C@@H]1C[C@H]2COc3ccn4ncc(c4n3)-c3cc(cc(C(=O)N(C)C)c3)NCCN2C1=O` [Example 58, (12R,14S)-12-ethoxy-N,N-dimethyl-11-oxo-16-oxa-7,10,20,21,24-pentaazapentacyclo[15.5.2.1^2,6.0^10,^14.0^20,^23]pentacosa-1(23),2(25),3,5,17(24),18,21-heptaene-4-carboxamide] has an IC50 of under 10 nM.
In the case of `[2H]C([2H])([2H])Oc1cc2cc(c1)-c1cnn3cc(OC)c(nc13)OC[C@@H]1C[C@@H](OCCOC)C(=O)N1CCN2` [Example 141, (12R,14S)-4-(^2H3)methoxy-18-methoxy-12-(2-methoxyethoxy)-16-oxa-7,10,20,21,24-pentaazapentacyclo[15.5.2.1^2,6.0^10,^14.0^20,^23]pentacosa-1(23),2,4,6(25),17(24),18,21-heptaen-11-one], the IC50 is reported as under 10 nM.
Work on `CO[C@@H]1C[C@H]2COc3nc4c(cnn4cc3-c3cn(C)nc3C)-c3cc(F)cc(c3)NCCN2C1=O` [Example 69] yielded an IC50 of under 10 nM.
